Experimental data taken from patent publication US7560480B2, “Alkyl-containing 5-acylindolinones, the preparation thereof and their use as medicaments” (Boehringer Ingelheim International GmbH, priority 2004, dated 2009).

Legend:
mice = assay: Tolerability after oral administration (animals' behaviour); assay type: in vivo; details: oral administration of 10 mg/kg
db/db mice = assay: Oral glucose tolerance test; assay type: in vivo; details: fasted db/db mice, 2 g/kg glucose orally 30 minutes after the substance
Description: Oral Glucose Tolerance Test
Fasted db/db mice 7 to 9 weeks old (Janvier, France) are weighed and blood is taken from the tip of the tail. This blood is used for the first measurement of glucose on the basis of which the animals are randomised and divided into groups. The test substance to be tested may be given either orally or i.p. as a suspension in 0.5% Natrosol. 30 minutes after the administration of the substance the animals are given orally 2 g/kg glucose in a volume of 0.1 ml/100 g body weight dissolved in NaCl solution. Subsequently, the glucose values are determined from the tail blood using a glucometer (Ultra OneTouch, Lifescan) at specific time intervals [30, 60, 120 and 180 minutes after oral administration of the glucose].

In the case of CC(=O)c1ccc2c(c1)/C(=C(/NCCC(=O)N1CCN(C)CC1)c1ccccc1)C(=O)N2 [Example 1.009], the “tolerability: changes in the animals' behaviour” value (mice) is reported as “no changes were observed in the animals' behaviour” and the “activity in the oral glucose tolerance test” value (db/db mice) is reported as “significant activity”.
